The results in this text go back to paper PMC10175918 (Communications Biology, 2023).

Test [1] has as its target T1, 348 GPCRs (Homo sapiens, UniProt P11229).
T1 sequence (P11229 1-460): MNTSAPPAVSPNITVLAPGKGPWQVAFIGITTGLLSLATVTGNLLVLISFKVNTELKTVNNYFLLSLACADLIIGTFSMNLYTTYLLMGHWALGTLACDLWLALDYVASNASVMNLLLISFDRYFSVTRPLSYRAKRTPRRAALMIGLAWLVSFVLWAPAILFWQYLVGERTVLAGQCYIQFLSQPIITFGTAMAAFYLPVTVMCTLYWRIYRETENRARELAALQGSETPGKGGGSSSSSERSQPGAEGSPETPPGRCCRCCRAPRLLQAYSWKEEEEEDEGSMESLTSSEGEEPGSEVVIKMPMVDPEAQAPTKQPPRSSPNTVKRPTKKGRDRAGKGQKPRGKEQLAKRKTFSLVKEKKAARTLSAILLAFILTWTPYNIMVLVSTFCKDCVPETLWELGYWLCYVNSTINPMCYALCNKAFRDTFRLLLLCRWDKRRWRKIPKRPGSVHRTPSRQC
The experiment in a line: TGFα-shedding assay-based GPCR screening with chimeric Gα subunit proteins. The format is cell-based.

Test [2] deals with T2, 5-hydroxytryptamine receptor 1E (Homo sapiens, UniProt P28566).
T2 construct: gene HTR1E
The experiment in a line: cell-based. To be noted: HEK293-A. Details: species or system HEK293A; AP-TGFα shedding assay, transfected GPCR plus chimeric Gα mixture, AP release as % of TPA response.

For test [3], the target named is T3, G protein-coupled receptor 18 (Homo sapiens, UniProt Q14330).
T3 construct: gene GPR18
T3 sequence (Q14330 1-331): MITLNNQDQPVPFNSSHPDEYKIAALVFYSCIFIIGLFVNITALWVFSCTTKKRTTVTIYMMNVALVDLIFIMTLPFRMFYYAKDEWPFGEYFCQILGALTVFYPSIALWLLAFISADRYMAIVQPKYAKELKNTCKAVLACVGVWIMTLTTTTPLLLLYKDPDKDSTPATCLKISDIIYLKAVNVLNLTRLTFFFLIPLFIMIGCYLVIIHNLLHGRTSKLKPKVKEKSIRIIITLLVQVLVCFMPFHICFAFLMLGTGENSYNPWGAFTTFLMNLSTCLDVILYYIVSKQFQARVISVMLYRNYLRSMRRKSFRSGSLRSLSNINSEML
The experiment in a line: cell-based. Details: species or system HEK293A; AP-TGFα shedding assay, transfected GPCR plus chimeric Gα mixture, AP release as % of TPA response. Conditions: HEK293-A.

The target of test [4] is T4, G protein-coupled receptor 68 long (Homo sapiens, UniProt Q15743).
T4 construct: gene GPR68; long isoform
The experiment in a line: cell-based. Details: species or system HEK293A; AP-TGFα shedding assay, transfected GPCR plus chimeric Gα mixture, AP release as % of TPA response. Conditions: HEK293-A.

The target of test [5] is T5, adenosine A2a receptor (Homo sapiens, UniProt P29274).
T5 construct: gene ADORA2A
The experiment in a line: cell-based. Details: species or system HEK293A; AP-TGFα shedding assay, transfected GPCR plus chimeric Gα mixture, AP release as % of TPA response. Conditions: HEK293-A.

Test [6] addresses T6, leukotriene B4 receptor 2 (Homo sapiens, UniProt Q9NPC1).
T6 construct: gene LTB4R2
T6 sequence (Q9NPC1 1-358): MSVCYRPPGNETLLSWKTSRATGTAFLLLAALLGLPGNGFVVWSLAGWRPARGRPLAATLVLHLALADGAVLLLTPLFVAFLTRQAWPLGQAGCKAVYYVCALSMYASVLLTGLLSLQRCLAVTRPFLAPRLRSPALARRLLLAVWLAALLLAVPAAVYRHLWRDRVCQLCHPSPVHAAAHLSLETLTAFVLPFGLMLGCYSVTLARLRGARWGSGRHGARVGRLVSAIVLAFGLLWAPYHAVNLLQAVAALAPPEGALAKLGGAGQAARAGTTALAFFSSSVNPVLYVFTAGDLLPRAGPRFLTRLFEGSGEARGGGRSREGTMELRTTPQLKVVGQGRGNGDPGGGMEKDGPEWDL
Nature of the test: cell-based. Details: species or system HEK293A; AP-TGFα shedding assay, transfected GPCR plus chimeric Gα mixture, AP release as % of TPA response. To be noted: HEK293-A.

For test [7], the target named is T7, neurotensin receptor type 2 (Homo sapiens, UniProt O95665).
T7 construct: gene NTSR2
The experiment in a line: cell-based. To be noted: HEK293-A. Details: species or system HEK293A; AP-TGFα shedding assay, transfected GPCR plus chimeric Gα mixture, AP release as % of TPA response.

Test [8] addresses T8, relaxin/insulin-like family peptide receptor 1 (Homo sapiens, UniProt Q9HBX9).
T8 construct: gene RXFP1
T8 sequence (Q9HBX9 1-757): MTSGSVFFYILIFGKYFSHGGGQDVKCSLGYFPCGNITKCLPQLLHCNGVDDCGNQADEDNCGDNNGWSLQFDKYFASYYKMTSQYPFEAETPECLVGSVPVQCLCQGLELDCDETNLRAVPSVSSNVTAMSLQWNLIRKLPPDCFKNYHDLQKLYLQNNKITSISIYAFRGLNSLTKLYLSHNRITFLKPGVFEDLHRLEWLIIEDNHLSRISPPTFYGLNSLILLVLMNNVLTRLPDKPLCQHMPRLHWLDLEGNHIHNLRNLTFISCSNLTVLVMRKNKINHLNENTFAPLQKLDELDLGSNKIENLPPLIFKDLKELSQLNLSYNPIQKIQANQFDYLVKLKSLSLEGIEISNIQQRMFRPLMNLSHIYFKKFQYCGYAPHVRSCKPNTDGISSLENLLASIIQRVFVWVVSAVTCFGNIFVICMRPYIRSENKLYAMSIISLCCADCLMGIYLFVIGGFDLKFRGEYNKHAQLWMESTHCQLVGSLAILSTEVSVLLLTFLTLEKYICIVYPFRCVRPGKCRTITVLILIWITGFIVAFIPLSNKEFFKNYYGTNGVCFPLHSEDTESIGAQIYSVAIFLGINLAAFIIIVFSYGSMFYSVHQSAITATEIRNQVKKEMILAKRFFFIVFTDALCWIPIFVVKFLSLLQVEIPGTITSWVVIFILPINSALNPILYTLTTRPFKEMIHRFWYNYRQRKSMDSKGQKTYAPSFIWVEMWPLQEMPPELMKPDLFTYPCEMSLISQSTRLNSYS
Nature of the test: cell-based. Details: species or system HEK293A; AP-TGFα shedding assay, transfected GPCR plus chimeric Gα mixture, AP release as % of TPA response. To be noted: HEK293-A.

The target in test [9] is T9, relaxin/insulin-like family peptide receptor 4 (Homo sapiens, UniProt Q8TDU9).
T9 construct: gene RXFP4
The experiment in a line: cell-based. Details: species or system HEK293A; AP-TGFα shedding assay, transfected GPCR plus chimeric Gα mixture, AP release as % of TPA response. Conditions: HEK293-A.

[10] abbreviates: read-out: % GPCR activation of 100μM Favipiravir compared to TPA.
The mark [11] stands for this setting: read-out: % GPCR activation compared to TPA, GPCR M1 (Muscarinic acetylcholine receptor M1).
Setting [12] is: read-out: % GPCR activation of 10μM Sofosbuvir compared to TPA.
[13] abbreviates: read-out: % GPCR activation of 10µM Remdesivir compared to TPA.
Where [14] appears, read: GPCR M1 (Muscarinic acetylcholine receptor M1), read-out: % GPCR activation compared to TPA.
Setting [15] is: read-out: % GPCR activation of 10μM GS441524 compared to TPA.
[16] abbreviates: read-out: % GPCR activation of 10µM Molnupiravir compared to TPA.

Where two headings read alike, the source gives them in different places.

T2 sequence (P28566 whole entry): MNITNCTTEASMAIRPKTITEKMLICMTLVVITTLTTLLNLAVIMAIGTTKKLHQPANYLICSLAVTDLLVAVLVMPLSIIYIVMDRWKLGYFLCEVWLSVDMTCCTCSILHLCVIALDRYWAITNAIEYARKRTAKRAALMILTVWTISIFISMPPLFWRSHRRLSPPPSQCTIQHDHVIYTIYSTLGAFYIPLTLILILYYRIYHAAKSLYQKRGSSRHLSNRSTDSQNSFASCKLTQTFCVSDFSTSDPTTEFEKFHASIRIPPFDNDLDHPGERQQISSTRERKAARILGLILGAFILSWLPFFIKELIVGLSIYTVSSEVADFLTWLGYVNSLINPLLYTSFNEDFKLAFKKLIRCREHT
T7 sequence (O95665 whole entry): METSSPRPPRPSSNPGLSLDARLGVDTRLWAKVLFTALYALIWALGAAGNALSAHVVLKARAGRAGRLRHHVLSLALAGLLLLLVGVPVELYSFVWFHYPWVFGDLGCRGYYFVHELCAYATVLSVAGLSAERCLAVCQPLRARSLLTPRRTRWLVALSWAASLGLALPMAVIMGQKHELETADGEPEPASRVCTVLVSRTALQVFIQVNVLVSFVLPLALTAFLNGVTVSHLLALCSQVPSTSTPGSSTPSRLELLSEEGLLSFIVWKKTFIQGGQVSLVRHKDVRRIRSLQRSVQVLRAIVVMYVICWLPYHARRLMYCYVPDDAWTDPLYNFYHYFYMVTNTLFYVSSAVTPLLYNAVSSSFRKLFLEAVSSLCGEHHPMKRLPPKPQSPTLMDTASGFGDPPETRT
T4 sequence (Q15743 whole entry, canonical isoform): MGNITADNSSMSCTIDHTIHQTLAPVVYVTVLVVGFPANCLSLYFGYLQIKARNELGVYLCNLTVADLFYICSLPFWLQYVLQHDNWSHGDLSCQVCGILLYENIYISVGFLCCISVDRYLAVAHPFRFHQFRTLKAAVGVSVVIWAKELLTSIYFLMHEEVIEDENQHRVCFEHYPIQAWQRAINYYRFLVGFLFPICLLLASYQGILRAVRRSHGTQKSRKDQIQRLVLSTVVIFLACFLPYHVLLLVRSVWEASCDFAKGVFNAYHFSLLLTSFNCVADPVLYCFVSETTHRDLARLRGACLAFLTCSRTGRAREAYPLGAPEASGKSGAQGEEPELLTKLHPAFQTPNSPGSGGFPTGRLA
T5 sequence (P29274 whole entry): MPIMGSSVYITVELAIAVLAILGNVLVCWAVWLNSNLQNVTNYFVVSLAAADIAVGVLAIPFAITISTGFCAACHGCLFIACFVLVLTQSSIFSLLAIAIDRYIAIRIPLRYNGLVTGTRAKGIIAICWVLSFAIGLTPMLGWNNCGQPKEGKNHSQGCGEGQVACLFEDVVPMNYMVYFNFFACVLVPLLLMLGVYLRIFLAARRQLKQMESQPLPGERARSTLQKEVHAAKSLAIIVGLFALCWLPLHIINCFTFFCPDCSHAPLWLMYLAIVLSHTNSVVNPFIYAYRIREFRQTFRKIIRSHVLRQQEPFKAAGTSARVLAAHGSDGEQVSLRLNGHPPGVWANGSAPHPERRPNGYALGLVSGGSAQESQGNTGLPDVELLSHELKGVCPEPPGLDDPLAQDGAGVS
T9 sequence (Q8TDU9 whole entry): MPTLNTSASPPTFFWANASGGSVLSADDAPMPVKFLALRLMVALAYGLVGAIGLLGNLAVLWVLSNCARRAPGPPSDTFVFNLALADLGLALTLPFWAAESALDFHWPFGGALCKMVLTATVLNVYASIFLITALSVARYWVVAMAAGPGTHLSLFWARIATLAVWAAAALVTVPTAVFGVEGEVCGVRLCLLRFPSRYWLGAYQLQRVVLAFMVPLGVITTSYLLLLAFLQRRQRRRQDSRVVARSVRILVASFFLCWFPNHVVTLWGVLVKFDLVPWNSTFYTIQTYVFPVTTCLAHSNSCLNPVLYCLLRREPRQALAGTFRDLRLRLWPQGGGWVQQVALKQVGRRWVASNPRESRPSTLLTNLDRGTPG

`NC(=O)c1nc(F)cnc1O` [favipiravir, 6-fluoro-3-hydroxy-2-pyrazinecarboxamide]: the activation at 100 µM in test [1] (GPCR M1 (Muscarinic acetylcholine receptor M1), 100μM, read-out: % GPCR activation compared to TPA) was 0.788%. Moreover, the activity at 100 µM was 0.555% in test [2] (setting [10]); -1% in test [3] (setting [10]); 5.02% in [4] (setting [10]); 2.34% in [5] (setting [10]); -0.0275% in [6] (setting [10]); -3.41% in test [7] (setting [10]). Further, the activity at 100 µM in test [8] (setting [10]) was determined as 0.274%; in [9] (setting [10]), 1.69%.

As to `CC(C)OC(=O)[C@H](C)N[P@](=O)(OC[C@H]1O[C@@H](n2ccc(=O)[nH]c2=O)[C@](C)(F)[C@@H]1O)Oc1ccccc1` [sofosbuvir], in [1] (setting [11]), the activation at 10 µM was -0.631%. Besides, the activity at 10 µM in test [2] (setting [12]) was -1.21%; in [3] (setting [12]), -3.04%; in test [4] (setting [12]), -162%; in test [5] (setting [12]) it was -2.15%; in test [6] (setting [12]), 1.86%; in test [7] (setting [12]), 0.255%. Further, the activity at 10 µM in test [8] (setting [12]) was 0.456%; in [9] (setting [12]) it was -1.57%.

As for `CCC(CC)COC(=O)[C@H](C)N[P@](=O)(OC[C@H]1O[C@@](C#N)(c2ccc3c(N)ncnn23)[C@H](O)[C@@H]1O)Oc1ccccc1` [remdesivir], the activation at 10 µM in test [1] (setting [11]) came to 3.01%. Moreover, the activity at 10 µM in test [2] (setting [13]) is -0.0718%; in test [3] (setting [13]), 1.12%; in test [4] (setting [13]) it was -2.93%; in [5] (setting [13]), 3.96%; in test [6] (setting [13]), -0.974%; in test [7] (setting [13]), -1.86%. For the same compound, the activity at 10 µM in test [8] (setting [13]) was -0.564%; in test [9] (setting [13]), 0.997%.

Regarding `N#C[C@@]1(c2ccc3c(N)ncnn23)O[C@H](CO)[C@@H](O)[C@H]1O` [GS441524], the activation at 10 µM in [1] (setting [14]) turned out to be 0.618%. Moreover, the activity at 10 µM in [2] (setting [15]) was -1.38%; in test [3] (setting [15]), 2.08%; in test [4] (setting [15]), 3.27%; in test [5] (setting [15]), 1.63%; in [6] (setting [15]), -0.182%; in test [7] (setting [15]) it was 1.01%. For the same compound, the activity at 10 µM in [8] (setting [15]) is -1.09%; in test [9] (setting [15]) it was -0.338%.

With `CC(C)C(=O)OC[C@H]1O[C@@H](n2ccc(NO)nc2=O)[C@H](O)[C@@H]1O` [molnupiravir], in test [1] (setting [14]), the activation at 10 µM is -0.856%. The activity at 10 µM in [2] (setting [16]) is -0.994%; in [3] (setting [16]), -5.39%; in test [4] (setting [16]), -160%; in test [5] (setting [16]) it was -1.95%; in [6] (setting [16]), -0.206%; in test [7] (setting [16]), 0.128%. The activity at 10 µM in test [8] (setting [16]) is -0.957%; in test [9] (setting [16]) it was -0.46%.
